Experimental data reported in PMC9181926, “Synthesis and Antiproliferative Activity of Novel Dehydroabietic Acid-Chalcone Hybrids” (Molecules, 2022).
Where “and” joins values, the source holds several entries; their conditions need not be identical. Equal values may be shown once.

Key:
Type in all cases: cell-based, human
MDA-MB-231 cells = experiment: Antiproliferation assay (cell counting, 48 h) in MDA-MB-231 breast cancer cells; conditions: for IC50: MDA-MB-231 cells, 48 h incubation, cell counting; for Selectivity Index for MDA-MB-231: FB IC50 relative to MDA-MB-231 IC50
From the text: (§1) Regarding the different characteristics of the used breast cancer cell lines, we can notice that MDA-MB-231 and Hs578T are triple negative.
(§2) Primary skin normal fibroblasts were kindly provided by Prof. Emer.

MCF-7 cells = experiment: Antiproliferation assay (cell counting, 48 h) in MCF-7 breast cancer cells; conditions: for IC50: MCF-7 cells, 48 h incubation, cell counting; for Selectivity Index for MCF-7: FB IC50 relative to MCF-7 IC50
From the text: as §1, §2

Hs578T cells = experiment: Antiproliferation assay (cell counting, 48 h) in Hs578T breast cancer cells; conditions: for IC50: Hs578T cells, 48 h incubation, cell counting; for Selectivity Index for Hs578T: FB IC50 relative to Hs578T IC50
From the text: as §1, §2

[1] = system: normal primary fibroblasts (FB); experiment: cells; conditions: for IC50: normal primary human fibroblasts, 48 h incubation, cell counting
From the text: as §2

| Compound | IC50 (MDA-MB-231 cells; Homo sapiens) | IC50 (MCF-7 cells; Homo sapiens, MCF7) | IC50 (Hs578T cells; Homo sapiens, Hs-578T) | IC50 ([1]; Fibroblast) | IC50 (MDA-MB-231 cells) | IC50 (MCF-7 cells) | IC50 (Hs578T cells) | other results |
| --- | --- | --- | --- | --- | --- | --- | --- | --- |
| COC(=O)[C@]1(C)CCC[C@]2(C)c3cc(O)c(C(=O)/C=C/c4csc5ccccc45)cc3CCC12 (stereo partly drawn) [Compound 47, (1R,4aS)-methyl 7-((E)-3-(benzo[b]thiophen-3-yl)acryloyl)-6-hydroxy-1,4a-dimethyl-1,2,3,4,4a,9,10,10a-octahydrophenanthrene-1-carboxylate] | 40.4 ± 0.67 µM | 12.5 ± 8.43 µM | > 75 µM | – | – | – | – | – |
| O=c1[nH]cc(F)c(=O)[nH]1 [Compound 5-FU, 5-fluorouracil, reference compound] | 19.2 ± 0.39 µM | 5.37 ± 1.16 µM | 7.38 ± 2.49 µM | 9.43 ± 0.8 µM | – | – | – | Selectivity Index for MDA-MB-231 (MDA-MB-231 cells): 0.49; Selectivity Index for MCF-7 (MCF-7 cells): 1.76; Selectivity Index for Hs578T (Hs578T cells): 1.28 |
| (1R,4aS)-methyl 6-hydroxy-1,4a-dimethyl-7-((E)-3-(2,4,5-trifluorophenyl)acryloyl)-1,2,3,4,4a,9,10,10a-octahydrophenanthrene-1-carboxylate [Compound 36] | – | – | – | – | > 75 µM | > 75 µM | > 75 µM | – |
| COC(=O)[C@]1(C)CCC[C@]2(C)c3cc(O)c(C(=O)/C=C/c4ccnc5ccccc45)cc3CCC12 (stereo partly drawn) [Compound 40, (1R,4aS)-methyl 6-hydroxy-1,4a-dimethyl-7-((E)-3-(quinolin-4-yl)acryloyl)-1,2,3,4,4a, 9,10,10a-octahydrophenanthrene-1-carboxylate] | > 75 µM | > 75 µM | > 75 µM | 92.1 ± 5.47 µM | – | – | – | – |
| COC(=O)[C@]1(C)CCC[C@]2(C)c3cc(O)c(C(=O)/C=C/c4ccncc4)cc3CCC12 (stereo partly drawn) [Compound 35, (1R,4aS)-methyl 6-hydroxy-1,4a-dimethyl-7-((E)-3-(pyridin-4-yl)acryloyl)-1,2,3,4,4a, 9,10,10a-octahydrophenanthrene-1-carboxylate] | 37.1 ± 1.82 µM | 9.9 ± 0.05 µM | 8.69 ± 0.55 µM | 33.8 ± 6.63 µM | – | – | – | Selectivity Index for MDA-MB-231 (MDA-MB-231 cells): 0.91; Selectivity Index for MCF-7 (MCF-7 cells): 3.42; Selectivity Index for Hs578T (Hs578T cells): 3.89 |
| (E)-3-(furan-2-yl)-1-((4bS,8R)-3-hydroxy-8-methoxy-4b,8-dimethyl-4b,5,6,7,8,8a,9,10-octahydrophenanthren-2-yl)prop-2-en-1-one [Compound 42] | – | – | – | – | > 75 µM | 37 ± 6.89 µM | 43.3 ± 4.32 µM | – |
| COC(=O)[C@]1(C)CCC[C@]2(C)c3cc(O)c(C(=O)/C=C/c4cnc5ccccc5c4)cc3CCC12 (stereo partly drawn) [Compound 39, (1R,4aS)-methyl 6-hydroxy-1,4a-dimethyl-7-((E)-3-(quinolin-3-yl)acryloyl)-1,2,3,4,4a, 9,10,10a-octahydrophenanthrene-1-carboxylate] | > 75 µM | 11.5 ± 1.02 µM | 15.7 ± 2.74 µM | 32.9 ± 2.27 µM | – | – | – | Selectivity Index for MCF-7 (MCF-7 cells): 2.86; Selectivity Index for Hs578T (Hs578T cells): 2.09 |
| COC(=O)[C@]1(C)CCC[C@]2(C)c3cc(O)c(C(=O)/C=C/c4ccc5ccccc5n4)cc3CCC12 (stereo partly drawn) [Compound 38, (1R,4aS)-methyl 6-hydroxy-1,4a-dimethyl-7-((E)-3-(quinolin-2-yl)acryloyl)-1,2,3,4,4a, 9,10,10a-octahydrophenanthrene-1-carboxylate] | 73 ± 2.31 µM | 7.06 ± 1.71 µM | > 75 µM | 161 ± 13.1 µM | – | – | – | Selectivity Index for MDA-MB-231 (MDA-MB-231 cells): 2.20; Selectivity Index for MCF-7 (MCF-7 cells): 22.7 and 22.75; times less toxic than 5-FU [1]: 12.9 times |
| (1R,4aS)-methyl 7-((E)-3-(2-hydroxyphenyl)-3-oxoprop-1-en-1-yl)-6-methoxy-1,4a-dimethyl-1,2,3,4,4a,9,10,10a-octahydrophenanthrene-1-carboxylate [Compound 31] | – | – | – | – | > 75 µM | 23.9 ± 4.47 µM | > 75 µM | – |
| (1R,4aS)-6-hydroxy-1,4a-dimethyl-7-((E)-3-(naphthalen-2-yl)acryloyl)-1,2,3,4,4a,9,10, 10a-octahydrophenanthrene-1-carboxylic acid [Compound 37] | – | – | – | – | > 75 µM | 11.4 ± 1.55 µM | > 75 µM | – |
| COC(=O)[C@]1(C)CCC[C@]2(C)c3cc(O)c(/C=C/C(=O)c4cnccn4)cc3CCC12 (stereo partly drawn) [Compound 51, (1R,4aS)-methyl 6-hydroxy-1,4a-dimethyl-7-((E)-3-oxo-3-(pyrazin-2-yl)prop-1-en-1-yl)-1,2,3,4,4a,9,10,10a-octahydrophenanthrene-1-carboxylate] | 18 ± 2.78 µM | > 75 µM | 23.11 ± 0.04 µM | 20.5 ± 2.46 µM | – | – | – | Selectivity Index for MDA-MB-231 (MDA-MB-231 cells): 1.14; Selectivity Index for Hs578T (Hs578T cells): 0.88 |
| COC(=O)[C@]1(C)CCC[C@]2(C)c3cc(O)c(/C=C/C(=O)c4ccccn4)cc3CCC12 (stereo partly drawn) [Compound 49, (1R,4aS)-methyl 6-hydroxy-1,4a-dimethyl-7-((E)-3-oxo-3-(pyridin-2-yl)prop-1-en-1-yl)-1,2,3,4,4a,9,10,10a-octahydrophenanthrene-1-carboxylate] | 22.4 ± 0.81 µM | 45.9 ± 1.52 µM | 17.1 ± 2.13 µM | 23.8 ± 1.07 µM | – | – | – | Selectivity Index for MDA-MB-231 (MDA-MB-231 cells): 1.06; Selectivity Index for MCF-7 (MCF-7 cells): 0.52; Selectivity Index for Hs578T (Hs578T cells): 1.39 |
| Tert-butyl 4-(4-((E)-3-((4bS,8R)-3-methoxy-8-(methoxycarbonyl)-4b,8-dimethyl-4b,5, 6,7,8,8a,9,10-octahydrophenanthren-2-yl)acryloyl)phenyl)piperazine-1-carboxylate [Compound 48] | – | – | – | – | > 75 µM | 25.62 ± 0.09 µM | 23.2 ± 2.5 µM | – |
| COC(=O)[C@]1(C)CCC[C@]2(C)c3cc(O)c(/C=C/C(=O)c4ccc(Br)s4)cc3CCC12 (stereo partly drawn) [Compound 53, (1R,4aS)-methyl 7-((E)-3-(5-bromothiophen-2-yl)-3-oxoprop-1-en-1-yl)-6-hydroxy-1,4a-dimthyl-1,2,3,4,4a,9,10,10a-octahydrophenanthrene-1-carboxylate] | 17.1 ± 0.41 µM | 41.4 ± 1.74 µM | 28.4 ± 1.97 µM | – | – | – | – | – |
| (1R,4aS)-methyl 7-((E)-3-(2-chloroquinolin-4-yl)acryloyl)-6-hydroxy-1,4a-dimethyl-1,2,3,4, 4a,9,10,10a-octahydrophenanthrene-1-carboxylate [Compound 41] | – | – | – | – | 7.12 ± 0.2 µM | 3.99 ± 0.15 µM | 10.3 ± 0.25 µM | IC50 [1]: 7.96 ± 0.1 µM |
| COC(=O)[C@]1(C)CCC[C@]2(C)c3cc(O)c(C(C)=O)cc3CCC12 (stereo partly shown) [Compound 28] | 115 ± 40.1 µM | 207 ± 7.28 µM | 136 ± 2.47 µM | – | – | – | – | – |
| (1R,4aS)-methyl 6-hydroxy-1,4a-dimethyl-7-((E)-3-oxo-3-(pyridin-3-yl)prop-1-en-1-yl)-1,2,3,4,4a,9,10,10a-octahydrophenanthrene-1-carboxylate [Compound 50] | – | – | – | – | > 75 µM | > 75 µM | > 75 µM | IC50 [1]: 192 ± 51.4 µM |
| COC(=O)[C@]1(C)CCC[C@]2(C)c3cc(O)c(C(=O)/C=C/c4c[nH]c5ccccc45)cc3CCC12 (stereo partly drawn) [Compound 46, (1R,4aS)-methyl 7-((E)-3-(1H-indol-3-yl)acryloyl)-6-hydroxy-1,4a-dimethyl-1,2,3,4,4a,9,10,10a-octahydrophenanthrene-1-carboxylate] | > 75 µM | > 75 µM | > 75 µM | – | – | – | – | – |
| (1R,4aS)-methyl 7-((E)-3-(benzofuran-2-yl)acryloyl)-6-hydroxy-1,4a-dimethyl-1,2,3, 4,4a,9,10, 10a-octahydrophenanthrene-1-carboxylate [Compound 52] | – | – | – | – | > 75 µM | > 75 µM | 60.2 ± 6.94 µM | – |
| COC(=O)[C@]1(C)CCC[C@]2(C)c3cc(OC)c(C(=O)/C=C/c4cccnc4)cc3CCC12 (stereo partly drawn) [Compound 32, (1R,4aS)-methyl 6-methoxy-1,4a-dimethyl-7-((E)-3-(pyridin-3-yl)acryloyl)-1,2,3,4,4a, 9,10,10a-octahydrophenanthrene-1-carboxylate] | > 75 µM | > 75 µM | > 75 µM | – | – | – | – | – |
| COC(=O)[C@]1(C)CCC[C@]2(C)c3cc(O)c(C(=O)/C=C/c4ccc(Br)s4)cc3CCC12 (stereo partly drawn) [Compound 45, (1R,4aS)-methyl 7-((E)-3-(5-bromothiophen-2-yl)acryloyl)-6-hydroxy-1,4a-dimethyl-1,2,3,4,4a,9,10,10a-octahydrophenanthrene-1-carboxylate] | > 75 µM | 29.9 ± 5.26 µM | > 75 µM | – | – | – | – | – |
| (E)-1-((4bS,8R)-3-hydroxy-8-methoxy-4b,8-dimethyl-4b,5,6,7,8,8a,9,10-octahydrophenanthren-2-yl)-3-(pyridin-2-yl)prop-2-en-1-one [Compound 34] | – | – | – | – | > 75 µM | 21.4 ± 0.6 µM | 28.1 ± 7.76 µM | – |
